# Earlier results, collected in patent US20210369631A1, “A LIPID-POLYMER HYBRID NANOPARTICLE” (NANOBRID INNOVATIONS PRIVATE LIMITED, priority 2019, published 2021).
row,SMILES,log P
1,O=C(CCCCCCC(=O)Nc1ccccc1)NO [Vorinostat],1.44
2,CCC(=O)O[C@]1(C(=O)CCl)[C@@H](C)C[C@H]2[C@@H]3CCC4=CC(=O)C=C[C@]4(C)[C@@]3(F)[C@@H](O)C[C@@]21C [clobetasol propionate],3.49
3,COC1=C(OC)C(=O)C(C/C=C(\C)CC/C=C(\C)CC/C=C(\C)CC/C=C(\C)CC/C=C(\C)CC/C=C(\C)CC/C=C(\C)CC/C=C(\C)CC/C=C(\C)CCC=C(C)C)=C(C)C1=O [coenzyme Q10],10
